Data from patent publication US20050101595A1, “N-containing cycloalkyl-substituted amino-thiazole derivatives and pharmaceutical compositions for inhibiting cell proliferation and methods for their use” (PFIZER INC., priority 2003, published 2005).

Experiments:
[1] = target: CDK2/Cyclin A (Homo sapiens, UniProt P24941); test: Inhibition of CDK2/Cyclin A Retinoblastoma Kinase Activity; type: biochemical; details: 0.03 μM compound
Method in brief: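 CDK2 (10 or 19 nM), insect-cell expressed, gel-filtration purified with truncated cyclin A; Rb fragment substrate; 25 μM ATP; 10 mM HEPES pH 7.4, 10 mM MgCl2; 30° C, 60 or 75 min; EDTA stop; phosphocellulose/nitrocellulose capture, phosphorimager. % inhibition vs DMSO control, no-enzyme background subtracted.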

[2] = target: human CDK4 and genetically truncated (1-264) cyclin D3 (Homo sapiens, UniProt P11802); test: Inhibition of CDK4/Cyclin D Retinoblastoma Kinase Activity; type: biochemical; details: 0.03 μM compound
Method in brief: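 The enzyme complex (5 nM), expressed in co-infected insect cells, was incubated with recombinant Rb fragment, 25 μM radiolabelled ATP and 2% DMSO at 30 °C. Reactions were stopped with EDTA after 20 minutes, or 60 minutes for tight-binding inhibitors. Apparent Ki values came from competitive inhibition fits.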

[3] = test system: HCT-116 cell line; test: Inhibition of cell growth, tetrazolium salt (MTT) assay; type: cell-based; details: HCT-116; for HCT-116 % Inhibition at 0.1 μM: 0.1 μM compound; for HCT-116 % Inhibition at 0.25 μM: 0.25 μM compound
Method in brief: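 HCT-116 cells in McCoy's 5A medium received compound 4 h after plating (0.5% v/v DMSO) and were incubated three to five days at 37° C, 5% CO2. MTT (0.2 mg/mL final) then added for 4 h; DMSO-solubilized formazan read at 540 nm against 0.5% DMSO-treated controls.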

human CDK4 and genetically truncated (1-264) cyclin D3, sequence (P11802 whole entry, the tested form may be a part): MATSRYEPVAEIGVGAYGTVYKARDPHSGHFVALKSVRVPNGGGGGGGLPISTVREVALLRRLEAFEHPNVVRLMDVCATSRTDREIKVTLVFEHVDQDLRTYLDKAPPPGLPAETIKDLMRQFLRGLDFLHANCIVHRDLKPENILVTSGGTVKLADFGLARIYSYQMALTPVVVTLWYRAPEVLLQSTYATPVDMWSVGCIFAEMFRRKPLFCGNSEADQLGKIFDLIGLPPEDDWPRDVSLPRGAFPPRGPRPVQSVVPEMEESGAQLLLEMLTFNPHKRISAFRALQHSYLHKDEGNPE
human CDK4 and genetically truncated (1-264) cyclin D3, sequence (P30281 1-264 partner): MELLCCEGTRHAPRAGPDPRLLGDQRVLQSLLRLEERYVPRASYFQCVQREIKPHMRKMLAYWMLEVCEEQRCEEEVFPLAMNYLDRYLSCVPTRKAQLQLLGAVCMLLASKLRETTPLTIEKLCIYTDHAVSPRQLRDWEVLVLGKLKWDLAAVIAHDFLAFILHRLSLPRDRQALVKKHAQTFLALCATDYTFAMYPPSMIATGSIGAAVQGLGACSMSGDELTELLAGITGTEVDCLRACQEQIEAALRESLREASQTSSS

Compound | CDK2 % Inhibition at 0.03 μM ([1]; Table 3) [%] | CDK4 % Inhibition at 0.03 μM ([2]; Table 3) [%] | CDK2 % Inhibition at 0.03 μM ([1]; Table 4) [%] | CDK4 % Inhibition at 0.03 μM ([2]; Table 4) [%] | HCT-116 % Inhibition at 0.1 μM ([3]; Table 3) [%] | HCT-116 % Inhibition at 0.25 μM ([3]; Table 3) [%] | HCT-116 % Inhibition at 0.1 μM ([3]; Table 4) [%] | HCT-116 % Inhibition at 0.25 μM ([3]; Table 4) [%]
N#Cc1cccc(S(=O)(=O)N2CCC(Nc3nc(N)c(C(=O)c4c(F)cccc4F)s3)CC2)c1 [Example P77] | 19 | 43 |  |  | 21 | 20 |  | 
CCc1cc(Br)ccc1S(=O)(=O)N1CCC(Nc2nc(N)c(C(=O)c3c(F)cccc3F)s2)CC1 [Example P78] | 17 | 24 |  |  | 27 | 23 |  | 
Nc1nc(NC2CCN(S(=O)(=O)c3c(Cl)nc4sccn34)CC2)sc1C(=O)c1c(F)cccc1F [Example P79] | 53 | 44 |  |  | 10 | 18 |  | 
CS(=O)(=O)c1ccc(S(=O)(=O)N2CCC(Nc3nc(N)c(C(=O)c4c(F)cccc4F)s3)CC2)cc1 [Example P80] | 81 | 73 |  |  | 15 | 29 |  | 
CS(=O)(=O)c1ccccc1S(=O)(=O)N1CCC(Nc2nc(N)c(C(=O)c3c(F)cccc3F)s2)CC1 [Example P81] | −5 | 36 |  |  | 12 | 19 |  | 
Nc1nc(NC2CCN(S(=O)(=O)c3c(Cl)cc(C(F)(F)F)cc3Cl)CC2)sc1C(=O)c1c(F)cccc1F [Example P82] | −23 | 12 |  |  | 17 | 24 |  | 
[N-]=[N+]=C1C=C(S(=O)(=O)N2CCC(Nc3nc(N)c(C(=O)c4c(F)cccc4F)s3)CC2)c2ccccc2C1=O [Example P83] | −11 | 25 |  |  | 10 | 26 |  | 
Nc1nc(NC2CCN(S(=O)(=O)c3ccc(Oc4ccccc4)cc3)CC2)sc1C(=O)c1c(F)cccc1F [Example P84] | 28 | 38 |  |  | 10 | 26 |  | 
Nc1nc(NC2CCN(S(=O)(=O)c3ccc(Oc4ccncc4)cc3)CC2)sc1C(=O)c1c(F)cccc1F [Example P85] | −28 | 14 |  |  | 12 | 26 |  | 
Nc1nc(NC2CCN(S(=O)(=O)c3ccc(Oc4ccc(I)cc4)cc3)CC2)sc1C(=O)c1c(F)cccc1F [Example P86] | 38 | 51 |  |  | 7 | 26 |  | 
Nc1nc(NC2CCN(S(=O)(=O)c3ccc(Sc4ccncc4)cc3)CC2)sc1C(=O)c1c(F)cccc1F [Example P87] | −25 | −5 |  |  | 9 | 22 |  | 
Cc1ccc2cc(S(=O)(=O)N3CCC(Nc4nc(N)c(C(=O)c5c(F)cccc5F)s4)CC3)ccc2c1 [Example P88] | 44 | 49 |  |  | 7 | 34 |  | 
CN(C(=O)N1CCC(Nc2nc(N)c(C(=O)c3c(F)cccc3F)s2)CC1)c1ccccc1 [Example Q1] |  |  | −7 | 31 |  |  | 0 | 38
Nc1nc(NC2CCN(C(=O)Oc3ccccc3)CC2)sc1C(=O)c1c(F)cccc1F [Example Q4] |  |  | 59 | 78 |  |  | 0 | 41
Nc1nc(NC2CCN(C(=O)Oc3ccc(Cl)cc3)CC2)sc1C(=O)c1c(F)cccc1F [Example Q5] |  |  | 45 | 81 |  |  | 0.81 | 36

More lines, main results first:

CDK2 % Inhibition at 0.03 μM ([1]; Table 3) [%] | CDK4 % Inhibition at 0.03 μM ([2]; Table 3) [%] | CDK2 % Inhibition at 0.03 μM ([1]; Table 4) [%] | CDK4 % Inhibition at 0.03 μM ([2]; Table 4) [%] | Compound | HCT-116 % Inhibition at 0.1 μM ([3]; Table 3) [%] | HCT-116 % Inhibition at 0.25 μM ([3]; Table 3) [%] | HCT-116 % Inhibition at 0.1 μM ([3]; Table 4) [%] | HCT-116 % Inhibition at 0.25 μM ([3]; Table 4) [%]
 |  | −43 | 13 | CN(C)C(=O)N1CCC(Nc2nc(N)c(C(=O)c3c(F)cccc3F)s2)CC1 [Example Q2] |  |  | 0.71 | 43
 |  | −43 | 11 | CCN(CC)C(=O)N1CCC(Nc2nc(N)c(C(=O)c3c(F)cccc3F)s2)CC1 [Example Q3] |  |  | 0 | 42
 |  | −32 | 24 | Nc1nc(NC2CCN(C(=O)OCc3ccccc3)CC2)sc1C(=O)c1c(F)cccc1F [Example Q6] |  |  | 9 | 38
 |  | −42 | 5 | CCCCC(CC)COC(=O)N1CCC(Nc2nc(N)c(C(=O)c3c(F)cccc3F)s2)CC1 (centres unmarked) [Example Q7] |  |  | 5 | 39
 |  | −13 | 15 | CCOC(=O)N1CCC(Nc2nc(N)c(C(=O)c3c(F)cccc3F)s2)CC1 [Example Q8] |  |  | 6 | 45
 |  | 13 | 52 | Nc1nc(NC2CCN(C(=O)c3ccccc3)CC2)sc1C(=O)c1c(F)cccc1F [Example Q9] |  |  | 0 | 36
 |  | 23 | 57 | Nc1nc(NC2CCN(C(=O)c3ccccc3Br)CC2)sc1C(=O)c1c(F)cccc1F [Example Q10] |  |  | 1 | 42
 |  | 30 | 57 | Nc1nc(NC2CCN(C(=O)c3ccccc3F)CC2)sc1C(=O)c1c(F)cccc1F [Example Q11] |  |  | 7 | 43
 |  | −20 | 22 | Nc1nc(NC2CCN(C(=O)c3c(F)cccc3F)CC2)sc1C(=O)c1c(F)cccc1F [Example Q12] |  |  | 3 | 46
 |  | 13 | 48 | Nc1nc(NC2CCN(C(=O)c3ccccc3Cl)CC2)sc1C(=O)c1c(F)cccc1F [Example Q13] |  |  | 5 | 43
 |  | 59 | 80 | CC(=O)Oc1ccccc1C(=O)N1CCC(Nc2nc(N)c(C(=O)c3c(F)cccc3F)s2)CC1 [Example Q14] |  |  | 15 | 45
 |  | 25 | 52 | COc1ccccc1C(=O)N1CCC(Nc2nc(N)c(C(=O)c3c(F)cccc3F)s2)CC1 [Example Q15] |  |  | 9 | 45
 |  | −12 | 19 | Nc1nc(NC2CCN(C(=O)c3ccccc3C(F)(F)F)CC2)sc1C(=O)c1c(F)cccc1F [Example Q16] |  |  | 11 | 50
 |  | −11 | 45 | Cc1ccccc1C(=O)N1CCC(Nc2nc(N)c(C(=O)c3c(F)cccc3F)s2)CC1 [Example Q17] |  |  | 2 | 34
 |  | 44 | 73 | Nc1nc(NC2CCN(C(=O)c3cccc(Br)c3)CC2)sc1C(=O)c1c(F)cccc1F [Example Q18] |  |  | 59 | 92
 |  | 21 | 59 | Nc1nc(NC2CCN(C(=O)c3cccc(Cl)c3)CC2)sc1C(=O)c1c(F)cccc1F [Example Q19] |  |  | 32 | 83
 |  | 33 | 74 | Nc1nc(NC2CCN(C(=O)c3ccc(Cl)c(Cl)c3)CC2)sc1C(=O)c1c(F)cccc1F [Example Q20] |  |  | 28 | 69
 |  | −23 | 14 | COc1ccc(C(=O)N2CCC(Nc3nc(N)c(C(=O)c4c(F)cccc4F)s3)CC2)cc1OC [Example Q21] |  |  | 16 | 51
 |  | 24 | 73 | COc1cc(C(=O)N2CCC(Nc3nc(N)c(C(=O)c4c(F)cccc4F)s3)CC2)cc(OC)c1OC [Example Q22] |  |  | 16 | 48
 |  | 20 | 56 | COc1cc(OC)cc(C(=O)N2CCC(Nc3nc(N)c(C(=O)c4c(F)cccc4F)s3)CC2)c1 [Example Q23] |  |  | 10 | 42
